Reference: patent US9546164B2 (GENENTECH, INC., priority 2013, dated 2017)
Structures can show the parent of a compound that is named as a salt. Where two headings read alike, the source gives them in different places.

Legend:
hNav1.7 = hNav1.7 (Homo sapiens (Human), UniProt Q15858); assay: Tritiated sulfonamide competitive binding to membranes from cells expressing hNav1.7 and the β1 subunit;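 note: Filter-bound radioactivity counted by liquid scintillation, nonspecific binding defined with excess unlabelled ligand, IC50 fitted to percent inhibition of specific binding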
NaV1.7 = NaV1.7 (Homo sapiens (Human), UniProt Q15858); assay: Patch voltage clamp electrophysiological assay (EP), NaV1.7; format: cell-based; conditions: HEK-293 cells stably expressing human NaV1.7 with β1 subunit, whole-cell patch clamp, holding −60 mV
Procedure: Electrophysiological Assay (EP) (In vitro Assay)
Control sodium currents were measured in 0.5% DMSO.
Series resistance compensation was applied (60-80%).

NaV1.5 = NaV1.5 (Homo sapiens (Human), UniProt Q14524); assay: Patch voltage clamp electrophysiological assay (EP), NaV1.5
Procedure: The following patch voltage clamp electrophysiology studies were performed on representative compounds of the invention using human embryonic kidney cells (HEK), permanently transfected with an expression vector containing the full-length cDNA coding for the desired human sodium channel α-subunit, grown in culture media containing 10% FBS, 1% PSG, and 0.5 mg/mL G418 at 37° C. with 5% CO2. […] The β1 subunit was coexpressed in both the NaV1.7 and NaV1.5 cell lines.
Sodium currents were measured rising the patch clamp technique in the whole-cell configuration using either a PatchXpress automated voltage clamp or manually using an Axopatch 200B (Axon Instruments) or Model 2400 (A-M systems) amplifier. […] The pipette was filled with a solution comprised of: 5 mM NaCl, 10 mM CsCl, 120 mM CsF, 0.1 mM CaCl2, 2 mM MgCl2, 10 mM HEPES, 10 mM EGTA; and adjusted to pH 7.2 with CsOH. The external solution had the following composition: 140 mM NaCl, 5 mM KCl, 2 mM CaCl2, 1 mM MgCl2, 10 mM HEPES; and adjusted to pH 7.4 with NaOH. In some studies, the external sodium was reduced by equimolar replacement with choline. Osmolality in the CsF internal and NaCl external solutions was adjusted to 300 mOsm/kg and 310 mOsm/kg with glucose, respectively. All recordings were performed at ambient temperature in a bath chamber with a volume of 150 μL. Control sodium currents were measured in 0.5% DMSO. Controls and representative compounds of the invention were applied to the recording chamber through a 4-pinch or 8-pinch valve bath perfusion system manufactured by ALA Scientific Instruments.
Currents were recorded at 40 kHz sampling frequency, filtered at 5 Hz, and stored using a Digidata-1322A analogue/digital interface with the pClamp software (Axon instruments). Series resistance compensation was applied (60-80%). […] All statistics in this study are given as mean±SD.
The membrane potential was maintained at a voltage where reactivation of the channel is complete (which was −60 mV for both NaV1.7 and NaV1.5). The voltage is then stepped back to a very negative (Vhold=150 mV) voltage for 20 ms and then a test poise is applied to quantify the compound block. The 20 ms brief repolarization was long enough for compound-free channels to completely recover from fast inactivation, but the compound-bound channels recovered more slowly such that negligible recovery could occur during this interval. The percent decrease in sodium current following wash-on of compound was taken as the percent block of sodium channels.

[1] = read-out: Ligand Binding Assay, 100 pM [3H]compound, membranes with hNav1.7 and β1 subunit, 18 h, room temperature
[2] = read-out: NaV1.5 EP, HEK-293 cells stably expressing human NaV1.5 with β1 subunit, whole-cell patch clamp, holding −60 mV

NaV1.5, sequence (Q14524 whole entry): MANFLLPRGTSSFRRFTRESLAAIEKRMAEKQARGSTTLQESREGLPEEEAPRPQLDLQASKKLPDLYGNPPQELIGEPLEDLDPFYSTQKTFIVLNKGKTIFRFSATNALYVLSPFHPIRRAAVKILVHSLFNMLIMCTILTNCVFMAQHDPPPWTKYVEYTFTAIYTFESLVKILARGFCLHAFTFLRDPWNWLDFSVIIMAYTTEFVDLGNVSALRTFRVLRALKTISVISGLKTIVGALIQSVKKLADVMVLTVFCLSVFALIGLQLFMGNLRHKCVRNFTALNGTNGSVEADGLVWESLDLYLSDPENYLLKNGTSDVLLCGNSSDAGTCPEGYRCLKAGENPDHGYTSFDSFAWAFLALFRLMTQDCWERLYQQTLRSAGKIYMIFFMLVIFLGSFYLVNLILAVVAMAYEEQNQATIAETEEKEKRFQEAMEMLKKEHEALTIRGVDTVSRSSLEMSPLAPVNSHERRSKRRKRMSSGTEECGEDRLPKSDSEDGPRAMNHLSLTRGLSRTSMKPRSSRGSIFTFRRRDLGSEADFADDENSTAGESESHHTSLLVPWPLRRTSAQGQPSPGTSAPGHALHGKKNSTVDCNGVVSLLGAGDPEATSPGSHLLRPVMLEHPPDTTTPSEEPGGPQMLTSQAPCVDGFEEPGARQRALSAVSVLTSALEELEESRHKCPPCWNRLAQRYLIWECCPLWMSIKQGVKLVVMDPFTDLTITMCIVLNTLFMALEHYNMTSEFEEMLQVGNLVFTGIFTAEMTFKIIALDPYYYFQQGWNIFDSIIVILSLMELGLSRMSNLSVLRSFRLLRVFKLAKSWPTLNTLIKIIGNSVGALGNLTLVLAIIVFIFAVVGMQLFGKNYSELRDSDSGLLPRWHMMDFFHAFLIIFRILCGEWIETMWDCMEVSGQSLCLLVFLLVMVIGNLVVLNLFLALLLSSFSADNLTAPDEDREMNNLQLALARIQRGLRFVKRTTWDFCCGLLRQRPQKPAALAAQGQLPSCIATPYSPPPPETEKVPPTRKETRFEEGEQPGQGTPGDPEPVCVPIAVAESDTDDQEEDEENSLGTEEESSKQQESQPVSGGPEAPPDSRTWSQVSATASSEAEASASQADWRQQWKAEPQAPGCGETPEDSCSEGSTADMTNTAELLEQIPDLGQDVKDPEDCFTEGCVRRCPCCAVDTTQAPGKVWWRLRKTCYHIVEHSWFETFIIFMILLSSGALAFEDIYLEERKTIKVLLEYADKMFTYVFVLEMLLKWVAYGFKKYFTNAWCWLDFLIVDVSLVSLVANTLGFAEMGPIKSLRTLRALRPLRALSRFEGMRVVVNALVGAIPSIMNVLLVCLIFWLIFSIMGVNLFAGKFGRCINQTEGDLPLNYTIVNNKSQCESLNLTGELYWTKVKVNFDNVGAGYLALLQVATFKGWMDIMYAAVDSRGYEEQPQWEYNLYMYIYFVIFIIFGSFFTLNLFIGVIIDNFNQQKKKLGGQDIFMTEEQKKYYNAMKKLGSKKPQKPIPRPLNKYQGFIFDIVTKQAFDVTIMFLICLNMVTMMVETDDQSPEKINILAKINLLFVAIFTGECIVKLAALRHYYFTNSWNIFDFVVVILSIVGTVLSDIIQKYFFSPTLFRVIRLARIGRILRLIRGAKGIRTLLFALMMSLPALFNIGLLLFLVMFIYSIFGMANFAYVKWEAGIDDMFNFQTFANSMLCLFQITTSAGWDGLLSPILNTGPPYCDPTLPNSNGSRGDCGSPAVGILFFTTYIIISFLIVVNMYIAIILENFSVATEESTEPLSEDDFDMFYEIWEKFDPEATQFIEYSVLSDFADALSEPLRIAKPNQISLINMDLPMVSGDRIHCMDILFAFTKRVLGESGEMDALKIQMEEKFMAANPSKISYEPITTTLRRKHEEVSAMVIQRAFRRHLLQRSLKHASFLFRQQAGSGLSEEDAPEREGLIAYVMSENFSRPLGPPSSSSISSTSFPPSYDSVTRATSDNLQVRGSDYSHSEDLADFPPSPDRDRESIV
NaV1.7, sequence (Q15858 other isoform, or with tags, fused parts or gaps): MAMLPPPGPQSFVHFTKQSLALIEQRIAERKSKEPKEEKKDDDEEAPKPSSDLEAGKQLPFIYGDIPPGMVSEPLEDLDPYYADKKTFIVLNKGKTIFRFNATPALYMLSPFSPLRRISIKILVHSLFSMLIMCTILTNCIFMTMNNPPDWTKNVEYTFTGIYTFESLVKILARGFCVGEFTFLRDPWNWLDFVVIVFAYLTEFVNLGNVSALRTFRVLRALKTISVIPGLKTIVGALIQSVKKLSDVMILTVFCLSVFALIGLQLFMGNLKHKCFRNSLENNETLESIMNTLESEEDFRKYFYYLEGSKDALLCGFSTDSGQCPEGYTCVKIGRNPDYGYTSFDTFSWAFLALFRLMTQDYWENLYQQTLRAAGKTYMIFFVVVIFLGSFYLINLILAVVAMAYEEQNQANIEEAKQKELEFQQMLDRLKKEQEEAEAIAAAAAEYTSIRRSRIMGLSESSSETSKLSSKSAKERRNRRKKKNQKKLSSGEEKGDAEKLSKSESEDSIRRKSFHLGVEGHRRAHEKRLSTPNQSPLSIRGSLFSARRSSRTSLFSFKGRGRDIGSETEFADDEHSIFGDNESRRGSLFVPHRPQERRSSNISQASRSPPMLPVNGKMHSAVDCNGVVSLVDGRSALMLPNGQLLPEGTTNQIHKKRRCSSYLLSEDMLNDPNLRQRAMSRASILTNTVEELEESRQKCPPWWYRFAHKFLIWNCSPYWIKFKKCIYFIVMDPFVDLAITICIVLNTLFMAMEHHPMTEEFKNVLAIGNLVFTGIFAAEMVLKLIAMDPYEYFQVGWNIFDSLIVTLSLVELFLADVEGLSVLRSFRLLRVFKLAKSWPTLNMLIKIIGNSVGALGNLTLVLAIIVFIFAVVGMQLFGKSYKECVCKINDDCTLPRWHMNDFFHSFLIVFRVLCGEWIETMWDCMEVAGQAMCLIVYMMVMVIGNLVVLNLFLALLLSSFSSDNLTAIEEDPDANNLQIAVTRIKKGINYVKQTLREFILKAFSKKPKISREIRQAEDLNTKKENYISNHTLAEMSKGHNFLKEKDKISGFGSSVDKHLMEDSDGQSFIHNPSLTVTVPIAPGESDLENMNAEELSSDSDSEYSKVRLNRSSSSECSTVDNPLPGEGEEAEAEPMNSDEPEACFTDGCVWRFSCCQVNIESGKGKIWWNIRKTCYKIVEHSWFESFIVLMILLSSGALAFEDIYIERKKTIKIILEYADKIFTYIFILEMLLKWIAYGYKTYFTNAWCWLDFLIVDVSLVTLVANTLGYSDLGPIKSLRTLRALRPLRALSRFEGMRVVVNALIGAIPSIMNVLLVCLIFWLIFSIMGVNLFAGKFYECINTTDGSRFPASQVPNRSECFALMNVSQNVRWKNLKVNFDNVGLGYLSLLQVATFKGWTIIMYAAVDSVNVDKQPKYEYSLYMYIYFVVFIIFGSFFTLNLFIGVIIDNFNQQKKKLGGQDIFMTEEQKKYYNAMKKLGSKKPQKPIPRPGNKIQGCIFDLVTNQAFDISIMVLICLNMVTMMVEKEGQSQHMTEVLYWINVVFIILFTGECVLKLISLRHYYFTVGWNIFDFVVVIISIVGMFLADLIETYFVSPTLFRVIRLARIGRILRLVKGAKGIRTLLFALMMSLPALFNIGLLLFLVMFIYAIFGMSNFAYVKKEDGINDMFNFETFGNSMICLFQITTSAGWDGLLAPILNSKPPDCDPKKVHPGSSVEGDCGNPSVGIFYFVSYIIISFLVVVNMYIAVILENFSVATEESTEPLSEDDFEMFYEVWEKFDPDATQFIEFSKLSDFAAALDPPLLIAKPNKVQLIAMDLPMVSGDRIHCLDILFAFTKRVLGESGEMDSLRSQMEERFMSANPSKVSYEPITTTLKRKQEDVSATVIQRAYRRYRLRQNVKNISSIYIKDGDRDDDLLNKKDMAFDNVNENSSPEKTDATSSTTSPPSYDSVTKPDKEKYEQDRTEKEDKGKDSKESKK
NaV1.7, sequence (Q07699 19-218 partner): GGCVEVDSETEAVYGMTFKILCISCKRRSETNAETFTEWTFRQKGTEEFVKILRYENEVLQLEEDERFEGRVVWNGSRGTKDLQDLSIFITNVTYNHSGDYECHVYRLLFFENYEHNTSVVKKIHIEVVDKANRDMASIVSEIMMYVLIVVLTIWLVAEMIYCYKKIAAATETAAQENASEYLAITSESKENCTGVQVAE
hNav1.7, sequence (Q15858 other isoform, or with tags, fused parts or gaps): as the sequence (Q15858 other isoform, or with tags, fused parts or gaps) above
hNav1.7, sequence (Q07699 19-218 partner): as the sequence (Q07699 19-218 partner) above

| IC50 (hNav1.7; [1]) [nM] | IC50 (NaV1.7) [nM] | SMILES | also measured |
| --- | --- | --- | --- |
| 3.9 | 2.8 | COC[C@@H](c1cc(Cl)cc(Cl)c1)N1CCC(COc2cc(F)c(C(=O)NS(C)(=O)=O)cc2C2CC2)CC1 (single isomer, unassigned) [Example 162] |  |
| 4.3 | 3.3 | COC[C@@H](c1cc(Cl)cc(Cl)c1)N1CCC(COc2cc(F)c(C(=O)NS(=O)(=O)C3CC3)cc2C2CC2)CC1 (single isomer, unassigned) [Example 164] |  |
| 2.3 | 2.4 | COC[C@H](c1cc(Cl)cc(Cl)c1)N1CCC(COc2cc(F)c(C(=O)NS(=O)(=O)C3CC3)cc2C2CC2)CC1 (single isomer, unassigned) [Example 165] | IC50 (NaV1.5; [2]): 49 nM |
|  | 4.2 | COC[C@H](c1cc(Cl)cc(Cl)c1)N1CCC(COc2cc(F)c(C(=O)NS(=O)(=O)N3CCC3)cc2C2CC2)CC1 (single isomer, unassigned) [Example 167] |  |
| 6.2 | 3 | CCS(=O)(=O)NC(=O)c1cc(C2CC2)c(OCC2CCN([C@@H](COC)c3cc(Cl)cc(Cl)c3)CC2)cc1F (single isomer, unassigned) [Example 168] | IC50 (NaV1.5; [2]): 78 nM |
| 6.3 | 3 | CCS(=O)(=O)NC(=O)c1cc(C2CC2)c(OCC2CCN([C@H](COC)c3cc(Cl)cc(Cl)c3)CC2)cc1F (single isomer, unassigned) [Example 169] | IC50 (NaV1.5; [2]): 280 nM |
| 4120 | 1080 | O=C(NS(=O)(=O)N1CCC1)c1cc(C2CC2)c(O[C@H]2CCCN(Cc3ccccc3)C2)cc1F [Example 2, (S)—N-(azetidin-1-ylsulfonyl)-4-((1-benzylpiperidin-3-yl)oxy)-5-cyclopropyl-2-fluorobenzamide] |  |
|  |  | O=C(NS(=O)(=O)C1CC1)c1cc(C2CC2)c(O[C@@H]2CCCN(Cc3cccc(Cl)c3)C2)cc1F [Example 27, (R)-4-((1-(3-chlorobenzyl)piperidin-3-yl)oxy)-5-cyclopropyl-N-(cyclopropylsulfonyl)-2-fluorobenzamide] | IC50 (hNav1.7): 3.6 nM; IC50 (NaV1.5): 169 nM |
|  | 2.5 | CC(C)Oc1ncc(CN2CCC(COc3cc(F)c(C(=O)NS(C)(=O)=O)cc3C3CC3)CC2)cc1Cl [Example 217, 4-((1-((5-Chloro-6-isopropoxypyridin-3-yl)methyl)piperidin-4-yl)methoxy)-5-cyclopropyl-2-fluoro-N-(methylsulfonyl)benzamide] | IC50 (NaV1.5; [2]): 190 nM |
| 6 | 2.8 | CS(=O)(=O)NC(=O)c1cc(C2CC2)c(OCC2CCN(Cc3cc(F)cc(Cl)c3)CC2)cc1F [Example 268, 4-((1-(3-Chloro-5-fluorobenzyl)piperidin-4-yl)methoxy)-5-cyclopropyl-2-fluoro-N-(methylsulfonyl)benzamide] |  |
|  |  | O=C(NS(=O)(=O)C1CC1)c1cc(C2CC2)c(CN2[C@@H]3CC[C@H]2C[C@@H](Oc2cc(Cl)cc(Cl)c2)C3)cc1F [Example 475, 5-cyclopropyl-N-(cyclopropylsulfonyl)-4-(((1R,3r,5S)-3-(3,5-dichlorophenoxy)-8-azabicyclo[3.2.1]octan-8-yl)methyl)-2-fluorobenzamide hydrochloride] | IC50 (NaV1.5): 814 nM |
| 4.5 |  | CC1(COc2cc(F)c(C(=O)NS(C)(=O)=O)cc2C2CC2)CCN(Cc2ccc(Cl)c(Cl)c2)CC1 [Example 575, 5-cyclopropyl-4-((1-(3,4-dichlorobenzyl)-4-methylpiperidin-4-yl)methoxy)-2-fluoro-N-(methylsulfonyl)benzamide] |  |
| 270 |  | COc1cccc(CN2CCC(C)(COc3cc(F)c(C(=O)NS(C)(=O)=O)cc3C3CC3)CC2)n1 [Example 576] |  |
| 40 |  | CC1(COc2cc(F)c(C(=O)NS(C)(=O)=O)cc2C2CC2)CCN(C(=O)c2cc(Cl)c(Cl)cc2F)CC1 [Example 577, 5-cyclopropyl-4-((1-(4,5-dichloro-2-fluorobenzoyl)-4-methylpiperidin-4-yl)methoxy)-2-fluoro-N-(methylsulfonyl)benzamide] |  |
| 180 |  | CC1(COc2cc(F)c(C(=O)NS(C)(=O)=O)cc2C2CC2)CCN(C(=O)c2cc(Cl)ccc2Cl)CC1 [Example 578, 5-cyclopropyl-4-((1-(2,5-dichlorobenzoyl)-4-methylpiperidin-4-yl)methoxy)-2-fluoro-N-(methylsulfonyl)benzamide] |  |
| 2.9 |  | CS(=O)(=O)NC(=O)c1cc(C2CC2)c(OCC2CCN(Cc3ccc(Cl)cc3C(F)(F)F)CC2)cc1F [Example 579, 4-((1-(4-chloro-2-(trifluoromethyl)benzyl)piperidin-4-yl)methoxy)-5-cyclopropyl-2-fluoro-N-(methylsulfonyl)benzamide] |  |

| IC50 (hNav1.7; [1]) [nM] | IC50 (NaV1.7) [nM] | SMILES | also measured |
| --- | --- | --- | --- |
| 3.7 |  | CS(=O)(=O)NC(=O)c1cc(C2CC2)c(OCC2CCN(Cc3cc(C(F)(F)F)ccc3Cl)CC2)cc1F [Example 580, 4-((1-(2-chloro-5-(trifluoromethyl)benzyl)piperidin-4-yl)methoxy)-5-cyclopropyl-2-fluoro-N-(methylsulfonyl)benzamide] |  |
| 3.8 |  | CS(=O)(=O)NC(=O)c1cc(C2CC2)c(OCC2CCN(Cc3cc(C(F)(F)F)cc(Cl)c3F)CC2)cc1F [Example 581, 4-((1-(3-chloro-2-fluoro-5-(trifluoromethyl)benzyl)piperidin-4-yl)methoxy)-5-cyclopropyl-2-fluoro-N-(methylsulfonyl)benzamide] |  |
| 4.2 |  | O=C(NS(=O)(=O)C1CC1)c1cc(C2CC2)c(OCC2CCN(Cc3cc(C(F)(F)F)cc(Cl)c3F)CC2)cc1F [Example 582, 4-((1-(3-chloro-2-fluoro-5-(trifluoromethyl)benzyl)piperidin-4-yl)methoxy)-5-cyclopropyl-N-(cyclopropylsulfonyl)-2-fluorobenzamide] |  |
| 3.4 |  | O=C(NS(=O)(=O)N1CCC1)c1cc(C2CC2)c(OCC2CCN(Cc3cc(C(F)(F)F)cc(Cl)c3F)CC2)cc1F [Example 583, N-(azetidin-1-ylsulfonyl)-4-((1-(3-chloro-2-fluoro-5-(trifluoromethyl)benzyl)piperidin-4-yl)methoxy)-5-cyclopropyl-2-fluorobenzamide] |  |
| 3.5 |  | CS(=O)(=O)NC(=O)c1cc(C2CC2)c(OCC2CCN(Cc3ccc(Br)cc3C(F)(F)F)CC2)cc1F [Example 585, 4-((1-(4-bromo-2-(trifluoromethyl)benzyl)piperidin-4-yl)methoxy)-5-cyclopropyl-2-fluoro-N-(methylsulfonyl)benzamide] |  |
| 5.2 |  | CS(=O)(=O)NC(=O)c1cc(C2CC2)c(OCC2CCN(Cc3ccc(F)cc3C(F)(F)F)CC2)cc1F [Example 586, 5-cyclopropyl-2-fluoro-4-((1-(4-fluoro-2-(trifluoromethyl)benzyl)piperidin-4-yl)methoxy)-N-(methylsulfonyl)benzamide] |  |
| 5.1 |  | CS(=O)(=O)NC(=O)c1cc(C2CC2)c(OCC2CCN(Cc3ccc(Br)c(Cl)c3)CC2)cc1F [Example 587, 4-((1-(4-bromo-3-chlorobenzyl)piperidin-4-yl)methoxy)-5-cyclopropyl-2-fluoro-N-(methylsulfonyl)benzamide] |  |
| 6.9 |  | CS(=O)(=O)NC(=O)c1cc(C2CC2)c(OCC2CCN(Cc3cc(F)c(Br)cc3F)CC2)cc1F [Example 588, 4-((1-(4-bromo-2,5-difluorobenzyl)piperidin-4-yl)methoxy)-5-cyclopropyl-2-fluoro-N-(methylsulfonyl)benzamide] |  |
| 11 |  | CS(=O)(=O)NC(=O)c1cc(C2CC2)c(OCC2CCN(Cc3ccc(Br)cc3F)CC2)cc1F [Example 589, 4-((1-(4-bromo-2-fluorobenzyl)piperidin-4-yl)methoxy)-5-cyclopropyl-2-fluoro-N-(methylsulfonyl)benzamide] |  |
|  |  | CS(=O)(=O)NC(=O)c1cc(C2CC2)c(OCC2CCN(Cc3cc(Cl)cc(C#N)c3)CC2)cc1F [Example 590, 4-((1-(3-chloro-5-cyanobenzyl)piperidin-4-yl)methoxy)-5-cyclopropyl-2-fluoro-N-(methylsulfonyl)benzamide] | IC50 (hNav1.7): 26 nM |
|  |  | CS(=O)(=O)NC(=O)c1cc(C2CC2)c(OCC2CCN(Cc3ccc(F)c(C#N)c3)CC2)cc1F [Example 591, 4-((1-(3-cyano-4-fluorobenzyl)piperidin-4-yl)methoxy)-5-cyclopropyl-2-fluoro-N-(methylsulfonyl)benzamide] | IC50 (hNav1.7): 240 nM |
| 9.9 |  | CC1(COc2cc(F)c(C(=O)NS(C)(=O)=O)cc2C2CC2)CN(Cc2cc(C(F)(F)F)cc(Cl)c2F)C1 [Example 593, 4-((1-(3-chloro-2-fluoro-5-(trifluoromethyl)benzyl)-3-methylazetidin-3-yl)methoxy)-5-cyclopropyl-2-fluoro-N-(methylsulfonyl)benzamide] |  |
| 59.9 |  | CS(=O)(=O)NC(=O)c1cc(C2CC2)c(OCC2(F)CCN(Cc3cc(C(F)(F)F)cc(C4CC4)n3)CC2)cc1F [Example 596] |  |
| 27.6 |  | C[C@H](c1cc(Cl)cc(Cl)c1)N1CCC(C#N)(COc2cc(F)c(C(=O)NS(C)(=O)=O)cc2C2CC2)CC1 [Example 597] |  |
| 258 |  | C[C@@H](c1cc(Cl)cc(Cl)c1)N1CCC(C#N)(COc2cc(F)c(C(=O)NS(C)(=O)=O)cc2C2CC2)CC1 [Example 598] |  |

| SMILES | IC50 (hNav1.7; [1]) [nM] | IC50 (NaV1.7) [nM] | also measured |
| --- | --- | --- | --- |
| CC(C)(c1cc(Cl)cc(Cl)c1)N1CCC(COc2cc(F)c(C(=O)NS(C)(=O)=O)cc2C2CC2)CC1 [Example 209] | 1.7 | 15.8 |  |
| COc1ccc(CN2CCC[C@@H](Oc3cc(F)c(C(=O)NS(C)(=O)=O)cc3C3CC3)C2)c(C)c1 [Example 434, trifluoroacetic acid salt] | 5 | 12.8 |  |
| CS(=O)(=O)NC(=O)c1cc(C2CC2)c(OCC2(C#N)CCN(Cc3cc(C(F)(F)F)cc(Cl)c3F)CC2)cc1F [Example 595, 4-((1-(3-chloro-2-fluoro-5-(trifluoromethyl)benzyl)-4-cyanopiperidin-4-yl)methoxy)-5-cyclopropyl-2-fluoro-N-(methylsulfonyl)benzamide] | 34.3 |  |  |
